Values after ≈ are worked out from the molar mass of the structure shown.
Tests used:
Type in all cases: functional, cell-based
[1] = Cytotoxicity against human BC cells by colorimetric assay
KB = experiment: Cytotoxicity against human KB cells by colorimetric assay
NCI-H187 = experiment: Cytotoxicity against human NCI-H187 cells by colorimetric assay

For `C=C(C)[C@@H]1CC[C@]2(C(=O)O)CC[C@]3(C)[C@H](CC[C@@H]4[C@@]5(C)CC[C@H](OC(=O)/C=C/c6ccc(O)c(OC)c6)C(C)(C)[C@@H]5CC[C@]43C)[C@@H]12`, the IC50 [1] was 3 µg/mL (≈ 4.74 µM), the IC50 (KB) was 3.8 µg/mL (≈ 6 µM) and the IC50 (NCI-H187) was 1.8 µg/mL (≈ 2.84 µM).

For `Cc1c2ccncc2c(C)c2c1[nH]c1ccccc12` [ELLIPTECINE], the IC50 [1] was 0.3 µg/mL (≈ 1.22 µM), the IC50 (KB) was 0.3 µg/mL (≈ 1.22 µM) and the IC50 (NCI-H187) was 0.3 µg/mL (≈ 1.22 µM).

Source: ChEMBL document CHEMBL1151285, “Dammarane triterpenes from the hypocotyls and fruits of Ceriops tagal” (J Nat Prod, 2005)
